Data as given in ChEMBL document CHEMBL4002647, “BMS-933043, a Selective α7 nAChR Partial Agonist for the Treatment of Cognitive Deficits Associated with Schizophrenia” (ACS Med Chem Lett, 2017).
Calls of active or inactive are those of the source. The rule behind the calls is not given here.

Tests used:
[1] = species: Canis familiaris; experiment: Hepatotoxicity in dog assessed as increase in ALT level; format: toxicity, Canis lupus familiaris; settings: in vivo
[2] = species: Canis familiaris; experiment: Hepatotoxicity in dog assessed as increase in AST level; format: toxicity, Canis lupus familiaris; settings: in vivo
[3] = molecular target: T1, Neuronal acetylcholine receptor subunit alpha-7 (Homo sapiens, UniProt P36544); experiment: Displacement of [125I]alpha-bungarotoxin from human alpha7 nAChR expressed in HEK293 cell membranes incubated for 2 hrs and measured by gamma counting method
T1 sequence (P36544 whole entry): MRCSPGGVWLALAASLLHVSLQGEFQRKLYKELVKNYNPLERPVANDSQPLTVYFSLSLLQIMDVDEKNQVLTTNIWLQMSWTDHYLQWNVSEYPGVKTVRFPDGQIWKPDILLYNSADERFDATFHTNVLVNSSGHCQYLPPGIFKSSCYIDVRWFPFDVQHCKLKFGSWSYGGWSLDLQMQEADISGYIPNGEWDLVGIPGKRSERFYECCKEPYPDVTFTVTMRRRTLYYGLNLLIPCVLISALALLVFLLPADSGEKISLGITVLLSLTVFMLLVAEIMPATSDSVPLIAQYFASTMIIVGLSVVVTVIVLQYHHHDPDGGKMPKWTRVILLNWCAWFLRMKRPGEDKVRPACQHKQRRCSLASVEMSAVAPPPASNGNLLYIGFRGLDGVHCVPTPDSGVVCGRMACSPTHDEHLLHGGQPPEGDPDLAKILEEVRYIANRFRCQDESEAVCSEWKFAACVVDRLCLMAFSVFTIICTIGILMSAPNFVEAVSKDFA

[4] = molecular target: T1, Neuronal acetylcholine receptor subunit alpha-7; experiment: Agonist activity at human alpha7 nAChR expressed in HEK293 cells co-expressing human RIC3 assessed as induction of peak current amplitutde at 10 uM at holding potential of -90 mV by whole-cell voltage clamp electrophysiology method relative to acetylcholine; format: cell-based
[5] = molecular target: T1, Neuronal acetylcholine receptor subunit alpha-7; experiment: Agonist activity at human alpha7 nAChR expressed in HEK293 cells co-expressing human RIC3 assessed as area under current curve at 10 uM at holding potential of -90 mV by whole-cell voltage clamp electrophysiology method relative to acetylcholine; format: cell-based
[6] = molecular target: T1, Neuronal acetylcholine receptor subunit alpha-7; experiment: Agonist activity at human alpha7 nAChR expressed in HEK293 cells co-expressing human RIC3 assessed as area under current curve at holding potential of -90 mV by whole-cell voltage clamp electrophysiology method; format: cell-based
[7] = molecular target: Nicotinic acetylcholine receptor alpha-1/beta-1/delta/epsilon (Rattus norvegicus) (UniProt P25109+P25108+P25110+P09660); experiment: Antagonist activity at rat alpha1beta1delta1epsilon nAChR expressed in HEK293 cells assessed as inhibition of acetylcholine-induced increase in Ca2+ flux by Fluo-4 AM dye based FLIPR assay; format: cell-based
[8] = Metabolic stability in human liver microsomes assessed as compound remaining at 3 uM after 10 mins by LC-MS/MS analysis; format: ADME, microsome; settings: read-out: Stability
[9] = Metabolic stability in rat liver microsomes assessed as compound remaining at 3 uM after 10 mins by LC-MS/MS analysis; format: ADME, microsome; settings: read-out: Stability
[10] = Metabolic stability in dog liver microsomes assessed as compound remaining at 3 uM after 10 mins by LC-MS/MS analysis; format: ADME, Canis lupus familiaris, microsome; settings: read-out: Stability
[11] = Metabolic stability in monkey liver microsomes assessed as compound remaining at 3 uM after 10 mins by LC-MS/MS analysis; format: ADME, Macaca mulatta, microsome; settings: rhesus monkey, read-out: Stability
[12] = molecular target: T2, CYP3A4 (Homo sapiens, UniProt P08684); experiment: Inhibition of recombinant human CYP3A4 using fluorogenic substrate BFC preincubated for 30 mins and measured after 20 to 60 mins in presence of NADPH regenerating system by fluorescence assay; format: ADME; settings: human, recombinant CYP3A4, probe BFC
T2 sequence (P08684 whole entry): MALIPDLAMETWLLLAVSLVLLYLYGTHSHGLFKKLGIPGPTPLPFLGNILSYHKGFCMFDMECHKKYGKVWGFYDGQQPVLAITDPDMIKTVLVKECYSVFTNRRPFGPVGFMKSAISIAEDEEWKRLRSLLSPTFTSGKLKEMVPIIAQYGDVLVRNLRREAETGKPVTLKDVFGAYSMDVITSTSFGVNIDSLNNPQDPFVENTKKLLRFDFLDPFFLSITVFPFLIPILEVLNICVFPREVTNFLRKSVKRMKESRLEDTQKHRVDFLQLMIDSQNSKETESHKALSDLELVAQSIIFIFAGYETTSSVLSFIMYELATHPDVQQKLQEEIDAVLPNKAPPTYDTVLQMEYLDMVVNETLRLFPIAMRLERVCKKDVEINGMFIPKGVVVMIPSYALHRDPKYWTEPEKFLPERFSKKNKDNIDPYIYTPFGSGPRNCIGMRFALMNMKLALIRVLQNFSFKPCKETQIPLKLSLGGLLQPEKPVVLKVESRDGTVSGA

[13] = molecular target: T2, CYP3A4; experiment: Inhibition of recombinant human CYP3A4 using fluorogenic substrate BZR preincubated for 30 mins and measured after 20 to 60 mins in presence of NADPH regenerating system by fluorescence assay; format: ADME; settings: human, recombinant CYP3A4, probe BZR
[14] = molecular target: CYP1A2 (Homo sapiens, UniProt P05177); experiment: Inhibition of recombinant human CYP1A2 using fluorogenic substrate preincubated for 30 mins and measured after 20 to 60 mins in presence of NADPH regenerating system by fluorescence assay; format: ADME; settings: recombinant CYP1A2, probe fluorogenic substrate (not named)
Chain of CYP1A2 (P05177 whole entry): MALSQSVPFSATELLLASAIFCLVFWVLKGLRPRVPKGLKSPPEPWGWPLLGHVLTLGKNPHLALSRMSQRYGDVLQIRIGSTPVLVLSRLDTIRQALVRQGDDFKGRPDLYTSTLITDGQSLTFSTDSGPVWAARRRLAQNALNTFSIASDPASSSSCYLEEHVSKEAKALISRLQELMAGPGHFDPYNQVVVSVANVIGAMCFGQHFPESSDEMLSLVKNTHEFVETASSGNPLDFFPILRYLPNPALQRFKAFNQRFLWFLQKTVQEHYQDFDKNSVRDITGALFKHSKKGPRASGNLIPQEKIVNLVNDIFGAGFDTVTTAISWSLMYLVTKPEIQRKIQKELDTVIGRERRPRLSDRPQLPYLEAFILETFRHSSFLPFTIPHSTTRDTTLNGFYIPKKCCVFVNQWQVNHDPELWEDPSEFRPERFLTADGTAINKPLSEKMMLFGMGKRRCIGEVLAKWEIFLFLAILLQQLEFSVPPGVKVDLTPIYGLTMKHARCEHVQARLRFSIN

[15] = molecular target: CYP2B6 (Homo sapiens, UniProt P20813); experiment: Inhibition of recombinant human CYP2B6 using fluorogenic substrate preincubated for 30 mins and measured after 20 to 60 mins in presence of NADPH regenerating system by fluorescence assay; format: ADME; settings: human, recombinant CYP2B6, probe fluorogenic substrate (not named)
Chain of CYP2B6 (P20813 whole entry): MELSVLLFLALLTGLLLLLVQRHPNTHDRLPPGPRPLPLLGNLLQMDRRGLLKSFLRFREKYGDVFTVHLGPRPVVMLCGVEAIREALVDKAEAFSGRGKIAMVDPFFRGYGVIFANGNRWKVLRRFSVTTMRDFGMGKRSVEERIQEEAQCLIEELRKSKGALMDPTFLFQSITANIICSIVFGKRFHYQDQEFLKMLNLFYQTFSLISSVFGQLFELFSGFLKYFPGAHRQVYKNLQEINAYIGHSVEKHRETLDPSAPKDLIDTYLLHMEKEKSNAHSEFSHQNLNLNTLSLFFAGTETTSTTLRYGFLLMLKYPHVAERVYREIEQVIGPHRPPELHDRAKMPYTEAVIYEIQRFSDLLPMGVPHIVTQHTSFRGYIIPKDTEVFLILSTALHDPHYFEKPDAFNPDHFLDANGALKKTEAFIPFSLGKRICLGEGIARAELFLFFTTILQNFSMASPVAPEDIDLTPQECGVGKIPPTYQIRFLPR

[16] = molecular target: CYP2C8 (Homo sapiens, UniProt P10632); experiment: Inhibition of recombinant human CYP2C8 using fluorogenic substrate preincubated for 30 mins and measured after 20 to 60 mins in presence of NADPH regenerating system by fluorescence assay; format: ADME; settings: human, recombinant CYP2C8, probe fluorogenic substrate (not named)
Chain of CYP2C8 (P10632 whole entry): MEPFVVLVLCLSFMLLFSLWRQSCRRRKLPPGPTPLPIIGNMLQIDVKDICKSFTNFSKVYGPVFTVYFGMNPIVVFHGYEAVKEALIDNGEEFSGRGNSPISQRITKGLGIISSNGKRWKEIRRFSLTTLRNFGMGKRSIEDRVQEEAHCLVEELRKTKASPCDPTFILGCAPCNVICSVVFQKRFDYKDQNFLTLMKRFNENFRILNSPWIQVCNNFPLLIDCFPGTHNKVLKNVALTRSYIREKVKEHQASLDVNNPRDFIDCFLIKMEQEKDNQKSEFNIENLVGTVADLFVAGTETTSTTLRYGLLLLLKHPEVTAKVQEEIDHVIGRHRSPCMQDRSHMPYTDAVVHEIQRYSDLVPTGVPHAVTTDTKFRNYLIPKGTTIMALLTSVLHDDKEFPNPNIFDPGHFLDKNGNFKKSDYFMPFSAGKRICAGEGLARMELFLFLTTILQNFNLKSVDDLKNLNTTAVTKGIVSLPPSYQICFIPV

[17] = molecular target: CYP2C9 (Homo sapiens, UniProt P11712); experiment: Inhibition of recombinant human CYP2C9 using fluorogenic substrate preincubated for 30 mins and measured after 20 to 60 mins in presence of NADPH regenerating system by fluorescence assay; format: ADME; settings: recombinant CYP2C9, probe fluorogenic substrate (not named)
Chain of CYP2C9 (P11712 whole entry): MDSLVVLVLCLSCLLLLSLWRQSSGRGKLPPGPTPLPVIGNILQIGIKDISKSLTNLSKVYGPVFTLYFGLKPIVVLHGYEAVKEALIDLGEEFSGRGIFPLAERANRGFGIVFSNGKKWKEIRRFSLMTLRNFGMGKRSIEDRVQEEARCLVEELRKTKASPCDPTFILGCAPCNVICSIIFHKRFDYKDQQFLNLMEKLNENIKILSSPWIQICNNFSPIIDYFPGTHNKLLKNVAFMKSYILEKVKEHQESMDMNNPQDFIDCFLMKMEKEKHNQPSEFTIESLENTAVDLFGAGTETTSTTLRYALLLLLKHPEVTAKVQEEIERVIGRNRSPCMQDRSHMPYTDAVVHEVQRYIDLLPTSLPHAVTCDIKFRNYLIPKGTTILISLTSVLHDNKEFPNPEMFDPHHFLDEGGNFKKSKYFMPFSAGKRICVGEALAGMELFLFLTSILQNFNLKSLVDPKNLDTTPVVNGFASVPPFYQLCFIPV

[18] = molecular target: CYP2C19 (Homo sapiens, UniProt P33261); experiment: Inhibition of recombinant human CYP2C19 using fluorogenic substrate preincubated for 30 mins and measured after 20 to 60 mins in presence of NADPH regenerating system by fluorescence assay; format: ADME; settings: recombinant CYP2C19, probe fluorogenic substrate (not named)
Chain of CYP2C19 (P33261 whole entry): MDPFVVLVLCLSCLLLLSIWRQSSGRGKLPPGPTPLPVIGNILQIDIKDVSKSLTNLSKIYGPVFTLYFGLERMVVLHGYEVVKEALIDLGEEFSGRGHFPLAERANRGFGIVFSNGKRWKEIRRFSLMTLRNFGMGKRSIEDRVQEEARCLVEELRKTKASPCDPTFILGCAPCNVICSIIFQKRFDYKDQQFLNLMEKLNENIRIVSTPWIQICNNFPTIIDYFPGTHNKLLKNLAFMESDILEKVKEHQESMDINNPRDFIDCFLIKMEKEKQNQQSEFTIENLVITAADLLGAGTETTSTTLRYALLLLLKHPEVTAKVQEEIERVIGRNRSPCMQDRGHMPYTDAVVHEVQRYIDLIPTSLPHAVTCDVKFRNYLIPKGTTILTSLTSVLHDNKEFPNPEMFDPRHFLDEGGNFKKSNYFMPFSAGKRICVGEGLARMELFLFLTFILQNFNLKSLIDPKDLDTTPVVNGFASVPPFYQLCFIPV

[19] = molecular target: CYP2D6 (Homo sapiens, UniProt P10635); experiment: Inhibition of recombinant human CYP2D6 using fluorogenic substrate preincubated for 30 mins and measured after 20 to 60 mins in presence of NADPH regenerating system by fluorescence assay; format: ADME; settings: human, recombinant CYP2D6, probe fluorogenic substrate (not named)
Chain of CYP2D6 (P10635 whole entry): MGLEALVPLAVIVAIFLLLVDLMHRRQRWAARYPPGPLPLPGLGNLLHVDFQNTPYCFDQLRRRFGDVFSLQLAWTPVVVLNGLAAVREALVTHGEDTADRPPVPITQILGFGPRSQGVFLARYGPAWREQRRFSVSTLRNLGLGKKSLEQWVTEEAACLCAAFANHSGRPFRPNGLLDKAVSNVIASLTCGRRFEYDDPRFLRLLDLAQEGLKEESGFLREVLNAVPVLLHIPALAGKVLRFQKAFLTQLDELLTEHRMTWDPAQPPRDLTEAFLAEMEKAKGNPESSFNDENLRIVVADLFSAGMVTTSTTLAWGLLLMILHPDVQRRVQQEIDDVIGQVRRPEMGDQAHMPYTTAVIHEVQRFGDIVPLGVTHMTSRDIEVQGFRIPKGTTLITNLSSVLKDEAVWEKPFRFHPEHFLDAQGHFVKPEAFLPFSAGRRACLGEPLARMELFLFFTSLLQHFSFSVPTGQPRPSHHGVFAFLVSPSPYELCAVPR

[20] = Fraction unbound in human plasma at 10 uM after 4 hrs by equilibrium dialysis method; format: ADME, cell-free
[21] = Fraction unbound in rat plasma at 10 uM after 4 hrs by equilibrium dialysis method; format: ADME, cell-free
[22] = Fraction unbound in mouse plasma at 10 uM after 4 hrs by equilibrium dialysis method; format: ADME, cell-free
[23] = Fraction unbound in dog plasma at 10 uM after 4 hrs by equilibrium dialysis method; format: ADME, cell-free, Canis lupus familiaris
[24] = Fraction unbound in monkey plasma at 10 uM after 4 hrs by equilibrium dialysis method; format: ADME, cell-free, Macaca mulatta; settings: rhesus monkey
[25] = species: Canis familiaris; experiment: Hepatotoxicity in dog assessed as increase in alkaline phosphatase level; format: toxicity, Canis lupus familiaris; settings: in vivo
[26] = species: Canis familiaris; experiment: Cardiotoxicity in dog assessed as QT prolongation; format: toxicity, Canis lupus familiaris
[27] = molecular target: Neuronal acetylcholine receptor; alpha3/beta4 (Rattus norvegicus) (UniProt P04757+P12392); experiment: Antagonist activity at rat alpha3beta4 nAChR expressed in HEK293 cells assessed as inhibition of acetylcholine-induced increase in Ca2+ flux by Fluo-4 AM dye based FLIPR assay; format: cell-based
[28] = molecular target: Neuronal acetylcholine receptor; alpha4/beta2 (Rattus norvegicus) (UniProt P09483+P12390); experiment: Antagonist activity at rat alpha4beta2 nAChR expressed in HEK293 cells assessed as inhibition of acetylcholine-induced increase in Ca2+ flux by Fluo-4 AM dye based FLIPR assay; format: cell-based
[29] = Metabolic stability in mouse liver microsomes assessed as compound remaining at 3 uM after 10 mins by LC-MS/MS analysis; format: ADME, microsome; settings: read-out: Stability
[30] = species: Canis familiaris; experiment: […] in dog assessed as increase in AST level; format: toxicity, Canis lupus familiaris; settings: in vivo
[31] = species: Canis familiaris; experiment: […] in dog assessed as increase in ALT level; format: toxicity, Canis lupus familiaris; settings: in vivo
[32] = species: Canis familiaris; experiment: […] in dog assessed as increase in alkaline phosphatase level; format: toxicity, Canis lupus familiaris; settings: in vivo

c1ccc2cc(NC3=NC[C@@]4(CN5CCC4CC5)O3)ncc2c1
Activity [1]: Toxic
Activity [2]: Toxic
Ki [3]: 0.0013 µM
%max [4]: 26%
%max [5]: 62%
EC50 [6]: 0.24 µM
inhibition [7]: inactive
remaining at 10 min, 3 µM [8]: 96%
remaining at 10 min, 3 µM [9]: 1%
remaining at 10 min, 3 µM [10]: 74%
remaining at 10 min, 3 µM [11]: 78%
IC50 [12]: > 40 µM
IC50 [13]: > 40 µM
IC50 [14]: > 40 µM
IC50 [15]: > 40 µM
IC50 [16]: > 40 µM
IC50 [17]: > 40 µM
IC50 [18]: > 40 µM
IC50 [19]: > 40 µM
fraction unbound at 4 h, 10 µM [20]: 0.25
fraction unbound at 4 h, 10 µM [21]: 0.27
fraction unbound at 4 h, 10 µM [22]: 0.23
fraction unbound at 4 h, 10 µM [23]: 0.44
fraction unbound at 4 h, 10 µM [24]: 0.35
Activity [25]: Toxic
Activity [26]: Toxic
inhibition [27]: inactive
inhibition [28]: inactive
remaining at 10 min, 3 µM [29]: 89%
Activity [30]: Toxic
Activity [31]: Toxic
Activity [32]: Toxic
